{"source": "patent US20240366539A1", "about": "“METHODS FOR TREATING AUTISM SPECTRUM DISORDERS” (INSTITUT NATIONAL DE LA SANTÉ ET DE LA RECHERCHE MÉDICALE, priority 2021, published 2024)", "format_in_all_cases": "in vivo, mouse", "key": {"Oprm1^−/− mice [1]": {"system": "Oprm1^−/− mice", "experiment": "Y-maze exploration", "conditions": "chronic NaBr 10-500 mg/kg or bumetanide 0.5 and 2 mg/kg", "protocol": "(§1) Mice were treated with vehicle (NaCl 0.9%; ip, 10 or 20 ml/kg), NaBr (Sigma-Aldrich, Saint-Quentin Fallavier, France) administered either chronically (once a day, 10, 30, 70, 125, 250 and 500 mg/kg; i.p. or per os, in a volume of 20 ml/kg—except for combination with VU0155041: […]) or acutely (250 mg/kg, 20 ml/kg), KBr (Sigma-Aldrich, Saint-Quentin Fallavier, France; 145 mg/kg; i.p., 20 ml/kg), bumetanide (R&D systems, Minneapolis, USA, 0.5 and 2 mg/kg; i.p., 20 ml/kg) or VU0155041 (Cayman Chemicals, Ann Arbor, USA, once a day, i.p., 1 mg/kg, 10 ml/kg). […] When treatment was given chronically, behavioral testing started 8 days after beginning of daily administration. Treatment was maintained for 8 to 18 consecutive days (see timelines in FIGS. 1 and 4), allowing thorough behavioral phenotyping. On testing days, or when treatment was given acutely, drugs (or vehicle) were administered 30 min before behavioral assays.\nY-maze exploration. Spontaneous alternation behavior was used to assess perseverative behavior (65-67). Each Y-maze consisted of three connected Plexiglas arms (15×15×17 cm) covered with distinct wall patterns (15 lx). Floors were covered with lightly sprayed fresh sawdust to limit anxiety. Each mouse was placed at the center of a maze and allowed to freely explore this environment for 5 min. The pattern of entries into each arm was quoted on video-recordings. Spontaneous alternations (SPA), i.e. successive entries into each arm forming overlapping triplet sets, alternate arm returns (AAR) and same arm returns (SAR) were scored, and the percentage of SPA, AAR and SAR was calculated as following: total/(total arm entries−2)*100."}, "Oprm1^−/− mice [2]": {"system": "Oprm1^−/− mice", "experiment": "Tail-immersion test", "conditions": "50° C., NaBr 70 mg/kg, VU0155041 1 mg/kg, alone or combined, chronic", "protocol": "as §1\nTail-immersion test. Nociceptive thresholds were assessed by immersing the tail of the mice (5 cm from the tip) successively into water baths at 48° C., 50° C. and 52° C. The latency to withdraw the tail was measured at each temperature, with a cutoff of 10 s."}, "Oprm1^−/− mice [3]": {"system": "Oprm1^−/− mice", "experiment": "Marble-burying", "protocol": "as §1\nMarble-burying. Marble burying was used as a measure of perseverative behavior (68). Mice were introduced individually in transparent cages (21×11×17 cm) containing 20 glass marbles (diameter: 1.5 cm) evenly spaced on 4-cm deep fresh sawdust. To prevent escapes, each cage was covered with a filtering lid. Light intensity in the room was set at 40 lux. The animals were removed from the cages after 15 min, and the number of marbles buried more than half in sawdust was quoted."}}, "data": [{"smiles": "[Br-].[Na+]", "note": "[NaBr, sodium bromide]", "values": [{"measurement": "perseverative same arm returns", "setting": "Oprm1^−/− mice [1]", "result": "suppressed perseverative same arm returns from the dose of 70 mg/kg"}, {"measurement": "perseverative same arm returns", "setting": "Oprm1^−/− mice [1]; listed as bromide", "result": "decreased the number of perseverative same arm returns in Oprm1 null mice to wild-type levels since the dose of 30 mg/kg"}, {"measurement": "flicking latency (nociceptive threshold)", "setting": "Oprm1^−/− mice [2]", "result": "ineffective"}, {"measurement": "excessive marble burying", "setting": "Oprm1^−/− mice [3]; Oprm1−/− mice, chronic NaBr 10-500 mg/kg or bumetanide 0.5 and 2 mg/kg", "result": "did not suppressed excessive burying in mutant mice"}, {"measurement": "number of buried marbles, global treatment effect", "setting": "Oprm1^−/− mice [3]; both mouse lines, chronic NaBr", "result": "globally increased burying"}]}]}
